One experiment has as its target T1, CDK2/CycE (Homo sapiens, UniProt P24941).
T1 construct: GST; purchased ProQinase GmbH (Freiburg, Germany); host or cells: insect cells (Sf9)
The experiment in a line: CDK2/CycE kinase assay (Method 2, TR-FRET). The class given is biochemical. The conditions noted are these: Method 2, 10 μM ATP. The source says:
2. CDK2/CycE Kinase Assay:
CDK2/CycE-inhibitory activity of compounds of the present invention was quantified employing the CDK2/CycE TR-FRET assay as described in the following paragraphs:
Recombinant fusion proteins of GST and human CDK2 and of GST and human CycE, expressed in insect cells (Sf9) and purified by Glutathion-Sepharose affinity chromatography, were purchased from ProQinase GmbH (Freiburg, Germany). As substrate for the kinase reaction biotinylated peptide biotin-Ttds-YISPLKSPYKISEG (C-terminus in amid form) was used which can be purchased e.g. form the company JERINI Peptide Technologies (Berlin, Germany).
For the assay 50 nl of a 100 fold concentrated solution of the test compound in DMSO was pipetted into a black low volume 384 well microtiter plate (Greiner Bio-One, Frickenhausen, Germany), 2 μl of a solution of CDK2/CycE in aqueous assay buffer [50 mM Tris/HCl pH 8.0, 10 mM MgCl2, 1.0 mM dithiothreitol, 0.1 mM sodium ortho-vanadate, 0.01% (v/v) Nonidet-P40 (Sigma)] were added and the mixture was incubated for 15 min at 22° C. to allow pre-binding of the test compounds to the enzyme before the start of the kinase reaction. Then the kinase reaction was started by the addition of 3 μl of a solution of adenosine-tri-phosphate (ATP, 16.7 μM=>final conc. in the 5 μl assay volume is 10 μM) and substrate (1.25 μM=>final conc. in the 5 μl assay volume is 0.75 μM) in assay buffer and the resulting mixture was incubated for a reaction time of 25 min at 22° C. The concentration of CDK2/CycE was adjusted depending of the activity of the enzyme lot and was chosen appropriate to have the assay in the linear range, typical concentrations were in the range of 130 ng/mL. The reaction was stopped by the addition of 5 μl of a solution of TR-FRET detection reagents (0.2 μM streptavidine-XL665 [Cisbio Bioassays, Codolet, France] and 1 nM anti-RB(pSer807/pSer811)-antibody from BD Pharmingen [#558389] and 1.2 nM LANCE EU-W1024 labeled anti-mouse IgG antibody [Perkin-Elmer, product no. AD0077]) in an aqueous EDTA-solution (100 mM EDTA, 0.2% (w/v) bovine serum albumin in 100 mM HEPES/NaOH pH 7.0).
(§1) The resulting mixture was incubated 1 h at 22° C. to allow the formation of complex between the phosphorylated biotinylated peptide and the detection reagents. Subsequently the amount of phosphorylated substrate was evaluated by measurement of the resonance energy transfer from the Eu-chelate to the streptavidine-XL. Therefore, the fluorescence emissions at 620 nm and 665 nm after excitation at 350 nm was measured in a TR-FRET reader, e.g. a Rubystar (BMG Labtechnologies, Offenburg, Germany) or a Viewlux (Perkin-Elmer). The ratio of the emissions at 665 nm and at […] was taken as the measure for the amount of phosphorylated substrate. The data were normalised (enzyme reaction without inhibitor=0% inhibition, all other assay components but no enzyme=100% inhibition).

The target in the next experiment is T2, CDK9/CycT1 (Homo sapiens, UniProt P50750).
T2 construct: Recombinant full-length His-tagged human CDK9 and CycT1; His; purchased Invitrogen PV4131; host or cells: insect cells
T2 sequence (P50750 whole entry): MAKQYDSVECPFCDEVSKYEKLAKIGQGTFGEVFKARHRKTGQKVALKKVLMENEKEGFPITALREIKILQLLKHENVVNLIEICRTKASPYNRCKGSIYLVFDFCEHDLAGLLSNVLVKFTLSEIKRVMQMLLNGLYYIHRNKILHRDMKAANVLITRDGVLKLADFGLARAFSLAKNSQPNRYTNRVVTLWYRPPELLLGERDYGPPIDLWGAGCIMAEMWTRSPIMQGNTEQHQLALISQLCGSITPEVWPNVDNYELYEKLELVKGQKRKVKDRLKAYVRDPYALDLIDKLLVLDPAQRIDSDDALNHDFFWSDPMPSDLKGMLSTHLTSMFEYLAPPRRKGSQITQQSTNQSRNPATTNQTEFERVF
T2 sequence (O60563 whole entry partner): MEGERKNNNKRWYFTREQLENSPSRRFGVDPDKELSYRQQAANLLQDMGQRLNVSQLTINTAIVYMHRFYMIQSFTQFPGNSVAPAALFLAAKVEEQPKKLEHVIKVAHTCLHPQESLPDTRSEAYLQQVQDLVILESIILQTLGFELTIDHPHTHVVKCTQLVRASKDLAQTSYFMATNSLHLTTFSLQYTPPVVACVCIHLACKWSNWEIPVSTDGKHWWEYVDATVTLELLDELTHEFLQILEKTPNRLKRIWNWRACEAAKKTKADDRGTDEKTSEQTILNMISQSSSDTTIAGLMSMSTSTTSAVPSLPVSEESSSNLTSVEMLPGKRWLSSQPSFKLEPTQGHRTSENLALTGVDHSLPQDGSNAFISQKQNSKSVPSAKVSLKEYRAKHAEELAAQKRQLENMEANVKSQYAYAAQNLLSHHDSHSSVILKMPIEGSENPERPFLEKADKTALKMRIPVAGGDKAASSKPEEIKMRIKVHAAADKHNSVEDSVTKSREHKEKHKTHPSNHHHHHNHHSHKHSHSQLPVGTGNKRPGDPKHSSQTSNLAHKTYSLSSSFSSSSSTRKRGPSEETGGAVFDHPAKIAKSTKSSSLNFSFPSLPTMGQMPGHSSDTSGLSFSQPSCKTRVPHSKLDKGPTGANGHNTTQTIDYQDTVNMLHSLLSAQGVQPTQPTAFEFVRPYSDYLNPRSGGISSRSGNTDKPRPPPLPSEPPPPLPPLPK
The experiment in a line: CDK9/CycT1 high ATP kinase assay (Method 1b, TR-FRET). The conditions noted are these: 2 mM ATP. The format is biochemical. The method, then:
1b. CDK9/CyeT1 High ATP Kinase Assay
CDK9/CycT1-inhibitory activity of compounds of the present invention at a high ATP concentration after preincubation of enzyme and test compounds was quantified employing the CDK9/CycT1 TR-FRET assay as described in the following paragraphs.
Recombinant full-length His-tagged human CDK9 and CycT1, expressed in insect cells and purified by Ni-NTA affinity chromatography, were purchase from Invitrogen (Cat. No PV4131). As substrate for the kinase reaction biotinylated peptide biotin-Ttds-YISPLKSPYKISEG (C-terminus in amid form) was used which can be purchased e.g. form the company JERINI peptide technologies (Berlin, Germany). For the assay 50 nl of a 100 fold concentrated solution of the test compound in DMSO was pipetted into a black low volume 384 well microtiter plate (Greiner Bio-One, Frickenhausen, Germany), 2 μl of a solution of CDK9/CycT1 in aqueous assay buffer [50 mM Tris/HCl pH 8.0, 10 mM MgCl2, 1.0 mM dithiothreitol, 0.1 mM sodium ortho-vanadate, 0.01% (v/v) Nonidet-P40 (Sigma)] were added and the mixture was incubated for […] at 22° C. to allow pre-binding of the test compounds to the enzyme before the start of the kinase reaction. Then the kinase reaction was started by the addition of 3 μl of a solution of adenosine-tri-phosphate (ATP, 3.3 mM=>final conc. in the 5 μl assay volume is 2 mM) and substrate (1.67 μM=>final conc. in the 5 μl assay volume is 1 μM) in assay buffer and the resulting mixture was incubated for a reaction time of […] at 22° C. The concentration of CDK9/CycT1 was adjusted depending of the activity of the enzyme lot and was chosen appropriate to have the assay in the linear range, typical concentrations were in the range of 0.5 μg/mL The reaction was stopped by the addition of 5 μl of a solution of TR-FRET detection reagents (0.2 μM streptavidine-XL665 [Cisbio Bioassays, Codolet, France] and 1 nM anti-RB(pSer807/pSer811)-antibody from BD Pharmingen [#558389] and 1.2 nM LANCE EU-W1024 labeled anti-mouse IgG antibody [Perkin-Elmer, product no. AD0077]) in an aqueous EDTA-solution (100 mM EDTA, 0.2% (w/v) bovine serum albumin in 100 mM HEPES/NaOH pH 7.0).
as §1, with “HTRF” for “TR-FRET”
(TR-FRET usually uses a lanthanide donor and a delayed reading to cut background.)

Each structure is given as a SMILES string.

`CCOC(=O)N=S(C)(=O)Cc1ccnc(Nc2cc(-c3ccc(F)c4ccoc34)c(F)cn2)c1` (racemic) [Example 11, (rac)-Ethyl {[(2-{[5-fluoro-4-(4-fluoro-1-benzofuran-7-yl)pyridin-2-yl]amino}pyridin-4-yl)methyl](methyl)oxido-λ^6-sulfanylidene}carbamate]: the IC50 (in general, the midpoint of a concentration-inhibition curve) on CDK2/CycE is 138 nM; on CDK9/CycT1, 2 nM.

Turning to `CS(=O)(Cc1cc(Nc2cc(-c3ccc(F)c4ccoc34)c(F)cn2)nc(C(F)(F)F)c1)=NC(=O)C(F)(F)F` (racemic) [Example 4, (rac)-2,2,2-Trifluoro-N-[{[2-{[5-fluoro-4-(4-fluoro-1-benzofuran-7-yl)pyridin-2-yl]amino}-6-(trifluoromethyl)pyridin-4-yl]methyl}(methyl)oxido-λ^6-sulfanylidene]acetamide], the IC50 against CDK2/CycE is 110 nM; on CDK9/CycT1, 7 nM.

For `CS(=N)(=O)Cc1cc(F)nc(Nc2cc(-c3ccc(F)c4ccoc34)c(F)cn2)c1` (racemic) [Example 1, (rac)-5-Fluoro-4-(4-fluoro-1-benzofuran-7-yl)-N-{6-fluoro-4-[(S-methylsulfonimidoyl)methyl]pyridin-2-yl}pyridin-2-amine], the values for the IC50 on CDK2/CycE and at CDK9/CycT1 were 42 nM and 1.5 nM, respectively.

Turning to `CS(=O)(Cc1ccnc(Nc2cc(-c3ccc(F)c4ccoc34)c(F)cn2)c1)=NC#N` (racemic) [Example 9, (rac)-{[(2-{[5-fluoro-4-(4-fluoro-1-benzofuran-7-yl)pyridin-2-yl]amino}pyridin-4-yl)methyl](methyl)oxido-λ^6-sulfanylidene}cyanamide], the half-maximal inhibitory concentration (IC50) came out at 146 nM on CDK2/CycE and 1.6 nM on CDK9/CycT1.

`CS(=O)(Cc1ccnc(Nc2cc(-c3ccc(F)c4ccoc34)c(F)cn2)c1)=NC(=O)C(F)(F)F` (racemic) [Example 6, (rac)-2,2,2-Trifluoro-N-{[(2-{[5-fluoro-4-(4-fluoro-1-benzofuran-7-yl)pyridin-2-yl]amino}pyridin-4-yl)methyl](methyl)oxido-λ^6-sulfanylidene}acetamide]: the IC50 was found to be 540 nM against CDK2/CycE and 6.4 nM on CDK9/CycT1.

As to `CS(=O)(Cc1cc(F)nc(Nc2cc(-c3ccc(F)c4ccoc34)c(F)cn2)c1)=NC(=O)C(F)(F)F` (racemic) [Example 2, (rac)-2,2,2-Trifluoro-N-{[(2-fluoro-6-{[5-fluoro-4-(4-fluoro-1-benzofuran-7-yl)pyridin-2-yl]amino}pyridin-4-yl)methyl](methyl)oxido-λ^6-sulfanylidene}acetamide], the IC50 was found to be 380 nM against CDK2/CycE and 7.8 nM at CDK9/CycT1.

On to `Cc1cc(CS(C)(=N)=O)cc(Nc2cc(-c3ccc(F)c4ccoc34)c(F)cn2)n1` (racemic) [Example 7, (rac)-5-Fluoro-4-(4-fluoro-1-benzofuran-7-yl)-N-{6-methyl-4-[(S-methylsulfonimidoyl)-methyl]pyridin-2-yl}pyridin-2-amine], for which the results for the IC50 against CDK2/CycE and on CDK9/CycT1 were 39 nM and 1.3 nM, respectively.

As for `CC(=O)N=S(C)(=O)Cc1ccnc(Nc2cc(-c3ccc(F)c4ccoc34)c(F)cn2)c1` (racemic) [Example 10, (rac)-N-{[(2-{[5-fluoro-4-(4-fluoro-1-benzofuran-7-yl)pyridin-2-yl]amino}pyridin-4-yl)methyl](methyl)oxido-λ^6-sulfanylidene}acetamide], the values for the IC50 at CDK2/CycE and against CDK9/CycT1 were 166 nM and 2.3 nM, respectively.

As for `CCc1cc(CS(C)(=N)=O)cc(Nc2cc(-c3ccc(F)c4ccoc34)c(F)cn2)n1` (racemic) [Example 8, (rac)-N-{6-Ethyl-4-[(S-methylsulfonimidoyl)methyl]pyridin-2-yl}-5-fluoro-4-(4-fluoro-1-benzofuran-7-yl)pyridin-2-amine], the half-inhibitory concentration (IC50) was 14 nM at CDK2/CycE and 1.3 nM on CDK9/CycT1.

Consider `CS(=O)(Cc1ccnc(Nc2cc(-c3ccc(F)c4ccoc34)c(F)cn2)c1)=NC(=O)NCC(F)(F)F` (racemic) [Example 13, (rac)-1-{[(2-{[5-Fluoro-4-(4-fluoro-1-benzofuran-7-yl)pyridin-2-yl]amino}pyridin-4-yl)methyl](methyl)oxido-λ^6-sulfanylidene}-3-(2,2,2-trifluoroethyl)urea], for which the IC50 is 280 nM on CDK2/CycE and 2.3 nM against CDK9/CycT1.

`CS(=N)(=O)Cc1cc(Nc2cc(-c3ccc(F)c4ccoc34)c(F)cn2)nc(C(F)(F)F)c1` (racemic) [Example 3, (rac)-5-Fluoro-4-(4-fluoro-1-benzofuran-7-yl)-N-{4-[(S-methylsulfonimidoyl)methyl]-6-(trifluoromethyl)pyridin-2-yl}pyridin-2-amine]: the results for the IC50 at CDK2/CycE and against CDK9/CycT1 were 21 nM and 2.7 nM, respectively.

On to `CCNC(=O)N=S(C)(=O)Cc1ccnc(Nc2cc(-c3ccc(F)c4ccoc34)c(F)cn2)c1` (racemic) [Example 12, (rac)-1-Ethyl-3-{[(2-{[5-fluoro-4-(4-fluoro-1-benzofuran-7-yl)pyridin-2-yl]amino}pyridin-4-yl)methyl](methyl)oxido-λ^6-sulfanylidene}urea], for which the IC50 was 113 nM against CDK2/CycE and 1.9 nM at CDK9/CycT1.

Regarding `CS(=N)(=O)Cc1ccnc(Nc2cc(-c3ccc(F)c4ccoc34)c(F)cn2)c1` (racemic) [Example 5, (rac)-5-Fluoro-4-(4-fluoro-1-benzofuran-7-yl)-N-{4-[(S-methylsulfonimidoyl)methyl]pyridin-2-yl}pyridin-2-amine], the IC50 was determined as 130 nM against CDK2/CycE and 2 nM against CDK9/CycT1.

The record behind these values is patent publication US9770445B2, “Sulfoximine substituted 5-fluoro-N-(pyridin-2-yl)pyridin-2-amine derivatives and their use as CDK9 kinase inhibitors” (BAYER PHARMA AKTIENGESELLSCHAFT, priority 2013, dated 2017).
